How the values were obtained:
[1] = target: T1, integrin α4β7 on α4β7+ memory T helper cells (Homo sapiens, UniProt P13612+P26010); experiment: MAdCAM-1 competition / receptor occupancy assay in human whole blood, α4β7-positive Th memory cells; type: cell-based; details: human whole blood, inhibition of MAdCAM-1 binding to α4β7-positive Th memory cells, FACS; read-out: MADCAM FACS α4β7 Th mem
T1 construct: endogenous in cells
T1 sequence (P13612 34-1032): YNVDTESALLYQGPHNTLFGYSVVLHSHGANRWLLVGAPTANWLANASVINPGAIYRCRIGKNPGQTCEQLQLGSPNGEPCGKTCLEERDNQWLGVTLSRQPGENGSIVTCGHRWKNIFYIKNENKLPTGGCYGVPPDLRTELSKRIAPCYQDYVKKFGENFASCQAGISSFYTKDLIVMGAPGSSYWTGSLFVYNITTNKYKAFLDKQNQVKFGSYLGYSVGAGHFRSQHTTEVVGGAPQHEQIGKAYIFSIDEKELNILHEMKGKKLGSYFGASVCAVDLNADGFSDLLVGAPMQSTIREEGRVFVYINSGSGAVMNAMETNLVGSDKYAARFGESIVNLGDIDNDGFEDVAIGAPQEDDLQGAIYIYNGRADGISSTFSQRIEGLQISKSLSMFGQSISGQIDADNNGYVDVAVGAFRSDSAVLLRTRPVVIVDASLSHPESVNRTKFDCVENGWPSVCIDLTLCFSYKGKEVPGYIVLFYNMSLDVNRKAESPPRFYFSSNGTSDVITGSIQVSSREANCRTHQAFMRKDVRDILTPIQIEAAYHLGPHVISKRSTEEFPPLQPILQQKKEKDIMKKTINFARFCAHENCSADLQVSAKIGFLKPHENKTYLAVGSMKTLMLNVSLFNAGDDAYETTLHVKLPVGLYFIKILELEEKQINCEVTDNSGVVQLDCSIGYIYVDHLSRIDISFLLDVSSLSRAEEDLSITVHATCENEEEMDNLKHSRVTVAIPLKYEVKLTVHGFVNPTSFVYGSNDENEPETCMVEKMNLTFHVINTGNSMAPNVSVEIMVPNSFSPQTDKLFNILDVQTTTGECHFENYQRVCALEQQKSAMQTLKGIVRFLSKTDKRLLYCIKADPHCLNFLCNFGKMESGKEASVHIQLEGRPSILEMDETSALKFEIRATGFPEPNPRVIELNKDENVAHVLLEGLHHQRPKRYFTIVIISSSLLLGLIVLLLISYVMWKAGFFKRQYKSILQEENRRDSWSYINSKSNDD
T1 sequence (P26010 20-798): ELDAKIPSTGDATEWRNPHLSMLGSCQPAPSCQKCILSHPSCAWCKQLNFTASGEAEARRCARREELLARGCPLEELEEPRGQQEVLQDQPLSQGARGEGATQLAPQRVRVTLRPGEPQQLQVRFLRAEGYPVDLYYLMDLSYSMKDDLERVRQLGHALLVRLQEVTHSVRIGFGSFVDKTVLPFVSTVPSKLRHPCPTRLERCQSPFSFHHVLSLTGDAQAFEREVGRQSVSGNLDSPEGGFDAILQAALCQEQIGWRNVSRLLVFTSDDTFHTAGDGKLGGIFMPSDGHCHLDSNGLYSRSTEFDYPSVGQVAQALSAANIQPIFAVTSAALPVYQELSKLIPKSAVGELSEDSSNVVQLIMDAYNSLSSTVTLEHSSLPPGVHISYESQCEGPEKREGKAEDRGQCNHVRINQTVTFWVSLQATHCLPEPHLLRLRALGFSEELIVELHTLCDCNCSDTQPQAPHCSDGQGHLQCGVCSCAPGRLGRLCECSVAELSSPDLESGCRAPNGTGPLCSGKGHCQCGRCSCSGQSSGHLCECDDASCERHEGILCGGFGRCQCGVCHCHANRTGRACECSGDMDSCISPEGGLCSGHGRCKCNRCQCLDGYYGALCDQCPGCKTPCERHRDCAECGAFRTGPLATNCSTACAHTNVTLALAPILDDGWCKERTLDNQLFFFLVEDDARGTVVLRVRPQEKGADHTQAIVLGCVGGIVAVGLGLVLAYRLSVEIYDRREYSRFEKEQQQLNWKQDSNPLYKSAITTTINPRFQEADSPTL
Method: Analyte Competition Assay in CD4+ Integrin α4+β7-Lo Memory T Cells
Receptor occupancy in primary cells was determined by measuring the amount of biotinylated human recombinant MAdCAM-1-FC or human recombinant VCAM-1-Fc bound to selected cell populations using flow cytometry. Human recombinant MAdCAM-1-FC or human recombinant VCAM-1-FC (R&D systems) were biotinylated using commercially available reagents and protocol (Pierce).
Whole blood was collected from human donors in sodium heparin tubes. […] Cells were washed twice with 1 mL of 1X DPBS calcium magnesium free (CMF) (ThermoFisher Scientific) and resuspended in 100 microL of DPBS CMF.
Biotinylated human recombinant MAdCAM-1-Fc or VCAM-1-Fc were added at saturating concentration and incubated at room temperature for 1 hour. […] Cells were washed with 1 mL stain buffer-FBS (BD Biosciences) and resuspended in 100 μl stain Buffer-FBS (BD Biosciences) containing 4 mM MnCl2. […] Cells were then washed with 1 mL stain buffer-FBS and resuspended in […] stain buffer-FBS. The cells were incubated in the dark for 30 minutes at room temperature with 1 ul Streptavidin APC (Biolegend 0.2 mg/ml) and a panel of antibodies for the detection of memory T helper a4b7-positive cells subset. And amount of 5.0 ul each of the following antibodies were used; CD45 FITC (BioLegend 200 ug/ml), CD29 APC Cy7 (BioLegend 100 ug/ml), Integrin beta7 PE, (BioLegend concentration 50 μg/mL), CD49d V421 (BioLegend 50 μg/mL), CD3 V510 (BioLegend 30 μg/mL), CD4 PECy7 (BioLegend 100 μg/mL), CD45RO PerCP, BioLegend 200 μg/mL). The cells were then washed with stain-buffer-FBS and resuspended in 150 microL stain buffer-FBS for acquisition on the flow cytometer (BD FACSCanto™ flow cytometer and BDFACSDiva™ software). FACS data was acquire by electronic gating on the basis of forward versus side scatter, The cytometer was set to collect 20,000 events in each tube. Cell population were determined using the following markers, CD45+, CD3+, CD4+, CD45RO+, CD49d+, integrin b7, biotinylated ligands.
Compound receptor occupancy was defined as the decrease in the number of integrin β7+ or integrin β7-lo cells binding biotinylated rhMAdCAM-1 or rhVCAM-1, respectively.
Receptor occupancy was calculated with the following equation: 100−((% ligand-positive cells with compound/% ligand-positive cells DMSO)*100) In Vivo T Lymphocyte Trafficking Analysis in Mouse Model of Colitis

[2] = target: T2, integrin α4β7 (RPMI8866 human cells adhering to MAdCAM-1) (Homo sapiens, UniProt P13612+P26010); experiment: Integrin α4β7-MAdCAM cell adhesion assay (RPMI8866 cells); type: cell-based; details: RPMI8866 cells adhering to MAdCAM; read-out: RPMI8866 Adhesion α4β7/MAdCAM IC50
T2 construct: RMP18866 cells, which express integrin α4β7; host or cells: RPMI8866
T2 sequence (P13612 34-1032): T1 sequence (P13612 34-1032)
T2 sequence (P26010 20-798): T1 sequence (P26010 20-798)
Procedure, shortened: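 Adhesion was read by calcein fluorescence. RPMI8866 cells were labelled at 10 million cells/ml with […] calcein (37° C., 30 min) and washed twice in PBS before reading. Dose-response values were corrected by subtracting cell-free control well fluorescence.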

[3] = target: T3, recombinant integrin α4β1 (Homo sapiens, UniProt P05556+P13612); experiment: Integrin α4β1—VCAM-1 competition ELISA; type: binding; details: read-out: ELISA α4β1 Assay IC50
T3 construct: purchased R&D Systems 5397-A3-050
T3 sequence (P05556 21-728 limits assumed, one chain of several): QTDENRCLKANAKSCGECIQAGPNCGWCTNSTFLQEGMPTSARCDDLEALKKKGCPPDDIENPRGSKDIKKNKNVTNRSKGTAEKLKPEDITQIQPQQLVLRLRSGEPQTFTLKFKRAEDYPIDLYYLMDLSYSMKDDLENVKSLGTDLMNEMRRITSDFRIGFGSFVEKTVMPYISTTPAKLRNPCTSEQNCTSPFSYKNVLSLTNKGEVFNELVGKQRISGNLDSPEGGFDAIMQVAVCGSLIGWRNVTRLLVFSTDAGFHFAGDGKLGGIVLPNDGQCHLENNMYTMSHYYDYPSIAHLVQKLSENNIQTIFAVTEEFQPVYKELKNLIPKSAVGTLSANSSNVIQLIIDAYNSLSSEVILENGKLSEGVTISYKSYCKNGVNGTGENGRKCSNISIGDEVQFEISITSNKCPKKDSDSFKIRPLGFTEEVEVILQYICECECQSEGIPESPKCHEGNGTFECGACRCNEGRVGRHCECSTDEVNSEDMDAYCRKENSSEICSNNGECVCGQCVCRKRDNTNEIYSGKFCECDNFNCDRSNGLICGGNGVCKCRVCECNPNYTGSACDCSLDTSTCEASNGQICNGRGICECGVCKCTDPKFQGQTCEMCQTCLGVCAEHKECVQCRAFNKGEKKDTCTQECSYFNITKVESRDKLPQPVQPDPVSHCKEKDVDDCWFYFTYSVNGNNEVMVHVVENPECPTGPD
Procedure, shortened: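 Detection of bound ligand used HRP-conjugated anti-human IgG Fc, 1 h with agitation at room temperature. This followed a 2 h room-temperature, 300 rpm equilibration of compound in the coated wells. Washes were done in 50 mM Tris, 100 mM NaCl, 1 mM MnCl2, 0.05% Tween.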

Compound | IC50 [1] | IC50 [2] | IC50 [3]
CC(C)C[C@@H]1NC(=O)[C@H]2Cc3ccccc3CN2C(=O)[C@H](Cc2cccc(CNC(=O)CCCCCC(=O)NCc3cccc(C[C@@H]4NC(=O)[C@@H]5CCCN5[C@H](C(=O)NC(C)(C)C)[C@H](C)NC(=O)[C@H]([C@@H](C)O)NC(=O)[C@H](CC(=O)O)NC(=O)[C@H](CC(C)C)NC(=O)[C@H]5Cc6ccccc6CN5C4=O)c3)c2)NC(=O)[C@@H]2CCCN2[C@H](C(=O)NC(C)(C)C)[C@H](C)NC(=O)[C@H]([C@@H](C)O)NC(=O)[C@H](CC(=O)O)NC1=O [Compound 527] | 126 nM | 43 nM | 1.1 nM
CC(C)C[C@@H]1NC(=O)c2ccc(-c3ccc(N4CCN(C(=O)c5ccccc5C(=O)N5CCN(c6ccc(-c7ccc8cc7CNC(=O)[C@@H]7CCCN7[C@H](C(=O)NC(C)(C)C)[C@H](C)NC(=O)[C@H]([C@@H](C)O)NC(=O)[C@H](CC(=O)O)NC(=O)[C@H](CC(C)C)NC8=O)cc6)CC5)CC4)cc3)c(c2)CNC(=O)[C@@H]2CCCN2[C@H](C(=O)NC(C)(C)C)[C@H](C)NC(=O)[C@H]([C@@H](C)O)NC(=O)[C@H](CC(=O)O)NC1=O [Compound 512] | 64 nM | 25 nM | –
CC(C)C[C@@H]1NC(=O)c2ccc(-c3ccc(N4CCN(C(=O)CCOCCOCCOCCOCCOCCOCCOCCOCCOCCOCCOCCC(=O)N5CCN(c6ccc(-c7ccc8cc7CNC(=O)[C@@H]7CCCN7[C@H](C(=O)NC(C)(C)C)[C@H](C)NC(=O)[C@H]([C@@H](C)O)NC(=O)[C@H](CC(=O)O)NC(=O)[C@H](CC(C)C)NC8=O)cc6)CC5)CC4)cc3)c(c2)CNC(=O)[C@@H]2CCCN2[C@H](C(=O)NC(C)(C)C)[C@H](C)NC(=O)[C@H]([C@@H](C)O)NC(=O)[C@H](CC(=O)O)NC1=O [Compound 503] | 250 nM | 45 nM | –
CC(C)C[C@@H]1NC(=O)c2ccc(-c3ccc(N4CCN(C(=O)Cc5cccc(CC(=O)N6CCN(c7ccc(-c8ccc9cc8CNC(=O)[C@@H]8CCCN8[C@H](C(=O)NC(C)(C)C)[C@H](C)NC(=O)[C@H]([C@@H](C)O)NC(=O)[C@H](CC(=O)O)NC(=O)[C@H](CC(C)C)NC9=O)cc7)CC6)c5)CC4)cc3)c(c2)CNC(=O)[C@@H]2CCCN2[C@H](C(=O)NC(C)(C)C)[C@H](C)NC(=O)[C@H]([C@@H](C)O)NC(=O)[C@H](CC(=O)O)NC1=O [Compound 462] | 68 nM | 42 nM | –

From patent US11713338B2, “Cyclic peptides multimers targeting α-4-β-7 integrin” (priority 2016, dated 2023)
